RP-LC retention time data for 58 compounds are collected here from the METLIN SMRT retention time set (Domingo-Almenara et al. 2019).

The nature of the series: gradient 5% acetonitrile 3 min, to 50% in 2 min, to 85% in 15 min, held 3 min, 100 µL/min. Particulars: column: Zorbax Extend-C18 2.1 x 50 mm; eluents: water / acetonitrile, 0.1% formic acid. A digest of the protocol:
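Values are retention times taken from adduct peaks that software picked and an analyst inspected. The pure standards were run as mixtures of ~100 molecules on HPLC linked to a quadrupole time-of-flight mass spectrometer, in positive and negative ionization mode. A Zorbax Extend-C18 column (2.1 × 50 mm, 1.8 μm) was used at 100 μL/min with water and acetonitrile, each including 0.1% formic acid.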
Compound `O=C(Cn1ccn2nc(-c3ccccc3)c(CO)c2c1=O)Nc1ccc(Cl)cc1F` yielded an RP-LC retention time of 869 s.
Next, `O=C(Cn1cnc2c(sc3nc(-c4ccccc4)ccc32)c1=O)Nc1cc(F)cc(F)c1`: 1070 s.
Compound `O=C1CCN(C(=O)C2CCN(C(=O)c3cccs3)CC2)CCCCCCN1` came in with an RP-LC retention time of 639 s.
The result for `O=C(Cc1cc(-c2ccco2)on1)Nc1ccc(F)c(F)c1F` reads 838 s.
Next, `CC(C)CN1Cc2c(nc3ccccc3c2C(=O)N2CCC(C)CC2)C1=O`: 834 s; `CCCN(C)c1nccn2c(=O)n(CC(=O)Nc3ccc(F)cc3F)nc12`: 673 s.
Next, `O=C(NCc1ccc(-n2ccnc2)cc1)c1ccccc1C(F)(F)F`: 610 s; `COc1cccc(CN2CC=C(C(=O)N3CCN(c4ccccc4)CC3)CC2)c1`: 664 s.
As to `Cc1noc(C)c1-c1ccc(S(=O)(=O)N2CCOCC2)cc1`, the RP-LC retention time came to 807 s.
Compound `O=C(NCc1ccc(OC(F)(F)F)cc1)C1CCCN(c2nnc3ccccn23)C1` (stereo not drawn) returned an RP-LC retention time of 727 s.
`O=C(NC1CCCC1)N1CCC(Oc2ccc(-c3noc(C4CC4)n3)cc2)C1` (stereo not drawn) came in with an RP-LC retention time of 904 s.
The result for `CCN1CCN(S(=O)(=O)c2cc(-c3nnc(C4CCCC4)o3)co2)CC1` reads 637 s.
Next, `COCCNC(=O)c1ccc2c(c1)CCCN2S(C)(=O)=O`: 649 s; `CCOc1ccccc1NC(=O)c1sc(-c2cn(CC)c3ncccc23)nc1C`: 1250 s.
The compound `O=C(C1CCN(c2ccncc2)CC1)N1CCN(c2ncccn2)CC1` registered an RP-LC retention time of 570 s.
The result for `Cc1ccc(CNC(=O)C2CCCN(c3cc(=O)n(C)c(=O)n3C)C2)o1` (stereo not drawn) reads 583 s.
In turn, `CC(C)CNC(=O)C1CCCN(c2nc3ccsc3c(=O)n2Cc2ccc(F)cc2)C1` (stereo not drawn) displayed an RP-LC retention time of 912 s.
`CSc1ccc(-c2nc3ccc(Br)cn3c2Nc2ccc(C)cc2)cc1` came in with an RP-LC retention time of 986 s.
The result for `CNC(=O)C1CCCN(c2nc3ncn(CC(=O)Nc4cc(OC)ccc4OC)c(=O)c3s2)C1` (stereo not drawn) reads 705 s; that for `Cc1ccnc(OCC(=O)NCCNc2cc(-n3nc(C)cc3C)nc(C)n2)n1`, 596 s.
Next, `O=C1Nc2ccccc2SC1C(=O)N1CCC(C(=O)N2CCN(c3ccc(F)cc3)CC2)CC1` (stereo not drawn): 778 s.
Next, `CCOc1ccccc1-c1noc(CN2C(=O)C(C)Oc3ccccc32)n1` (stereo not drawn): 1130 s; `Cc1ccc(-c2cn3ccn(-c4ccc(Cl)cc4)c(=O)c3n2)cc1`: 905 s.
Regarding `COc1ccc(-c2csc(NC(=O)c3sc(COc4ccc(Cl)c(C)c4)nc3C)n2)cc1`, the RP-LC retention time was 1320 s.
The result for `CS(=O)(=O)Nc1ccc(C2(C(=O)NCCC3=CCCCC3)CCCCC2)cc1` reads 1030 s; that for `CC(C)CNC(=O)C1CCN(c2cncnc2N2CCOCC2)CC1`, 582 s.
The result for `Cc1ccc2nc(NC(=O)Cc3csc4nc(-c5ccc(C)c(C)c5)cn34)sc2c1` reads 953 s.
As for `O=C(Cn1nc2n(c1=O)CCCC2)Nc1cccc(Br)c1`, the RP-LC retention time amounted to 686 s.
The result for `COc1ccc(Cl)cc1S(=O)(=O)NCc1c(-c2ccccc2)nc2sc(C)nn12` reads 912 s.
The result for `COc1cc(C(=O)Nc2nc3c(C)cc(Cl)cc3s2)cc(OC)c1OC` reads 1120 s.
The result for `Cc1c(-c2noc(-c3ccc4cc[nH]c4c3)n2)nnn1-c1ccc(F)cc1` reads 996 s; that for `CC1(C)CC(=O)c2cn(-c3ccccc3)c(=O)c(C(=O)N3CCc4ccccc43)c2C1`, 910 s.
In turn, `COc1ccc(-c2cc(N3CCC(NC(=O)c4cccc(OC(F)(F)F)c4)C3)n[nH]2)cc1` (stereo not drawn) displayed an RP-LC retention time of 828 s.
`CC(C)CC(=O)N1CCC2(CC1)NCc1ccccc1-n1ccnc12`: the RP-LC retention time amounted to 594 s.
The result for `O=C(NCc1ccc(F)cc1)C1CCCN(S(=O)(=O)c2c[nH]c(C(=O)N3CCCC3)c2)C1` (stereo not drawn) reads 747 s; that for `Cc1nc(C)c(-c2ccc(=O)n(CCNC(=O)Cn3cnc4ccccc43)n2)s1`, 552 s; that for `CCCCS(=O)(=O)c1cc2c(cc1NC(=O)c1cccc(F)c1)n(C)c(=O)n2C`, 966 s.
Next, `O=C(CCC1CCCN(C(=O)Nc2ccccc2)C1)NCc1cccc(F)c1` (stereo not drawn): 806 s.
Take `Cc1c(-c2ccnc(N3CCN(C)CC3)n2)cnc2nc(-c3cccs3)nn12`: the RP-LC retention time is 601 s.
The result for `CC(=O)c1ccc(NC(=O)c2[nH]c3cc(C)sc3c2CN(C)C)cc1` reads 638 s.
The result for `Cc1nc(N2CCN(c3ccccn3)CC2)nc2c1C(=O)CC(/C=C/c1ccccc1)C2` (stereo not drawn) reads 856 s; that for `O=C(c1ccc(Cl)cc1)N1CCCCC(Sc2ncnc3sccc23)C1=O` (stereo not drawn), 1050 s.
In turn, `COc1ccccc1NC(=O)NCCC1CCN(S(=O)(=O)c2ccccc2)CC1` registered an RP-LC retention time of 910 s.
Next, `Nc1nc(CN2CCN(c3ccccn3)CC2)nc(Nc2ccc(Oc3ccccc3)cc2)n1`: 669 s; `COc1ccc(-c2cn3ccn(-c4cccc(Cl)c4)c(=O)c3n2)cc1`: 837 s.
Next, `Cc1cc(C)cc(NC(=O)C2CC(=O)N(CCc3c[nH]c4ccc(C)cc34)C2)c1` (stereo not drawn): 923 s.
The result for `O=C(CSc1cc(-c2ccc(F)cc2)ncn1)NCc1ccc2c(c1)OCO2` reads 825 s; that for `CC(C)NC(=O)c1cnn2c(-c3ccccn3)ccnc12`, 718 s.
Turning to `O=C(Cn1nc2nc(N3CCCC3)ccn2c1=O)NCCc1ccccc1`, the RP-LC retention time turned out to be 947 s.
The result for `CCCCN1CCN(C(=O)CN2CCN(Cc3ccccc3)C2=O)CC1` reads 589 s; that for `O=C(c1cn2nc(Cl)ccc2n1)N1CCN(c2ccccc2F)CC1`, 836 s; that for `COc1cc(-c2noc(Cn3ncn4nc(-c5ccccc5Cl)cc4c3=O)n2)cc(OC)c1OC`, 1060 s.
Next, `CN(C)c1nn(CC(=O)Nc2ccc(Br)cc2)c(=O)c2ccccc12`: 932 s; `CCOc1ccccc1NC(=O)C1CCCN1S(=O)(=O)c1cc2c(cc1Cl)NC(=O)CO2` (stereo not drawn): 880 s.
`CCn1cc(-c2ccccc2)cc1C(=O)NCc1ccccn1`: the RP-LC retention time is 703 s.
The result for `CN1C(=O)c2cccn2CC1CNC(=O)NCc1ccccc1` (stereo not drawn) reads 646 s.
The result for `COc1ccc(NC(=O)c2nnc(C(=O)NCCc3c[nH]c4ccc(OC)cc34)s2)cc1` reads 951 s; that for `CCc1nc(-c2csc(S(=O)(=O)N3CCC(C(=O)Nc4cc(C)ccn4)CC3)c2)no1`, 749 s.
